Source: ChEMBL document CHEMBL1153626, “Rapid assessment of a novel series of selective CB(2) agonists using parallel synthesis protocols: A Lipophilic Efficiency (LipE) analysis” (Bioorg Med Chem Lett, 2009)

Tests used:
Type in all cases: functional, cell-based
[1] = molecular target: T1, Cannabinoid receptor 1 (Homo sapiens, UniProt P21554); test: Agonist activity at human recombinant CB1 receptor expressed in CHO cells at 10 uM by FLIPR assay
[2] = molecular target: Cannabinoid receptor 2 (Homo sapiens, UniProt P34972); test: Agonist activity at human recombinant CB2 receptor expressed in CHO cells assessed as inhibition forskolin-induced cAMP release
[3] = molecular target: T1, Cannabinoid receptor 1; test: Agonist activity at human recombinant CB1 receptor expressed in CHO cells by FLIPR assay

T1 sequence (P21554 whole entry): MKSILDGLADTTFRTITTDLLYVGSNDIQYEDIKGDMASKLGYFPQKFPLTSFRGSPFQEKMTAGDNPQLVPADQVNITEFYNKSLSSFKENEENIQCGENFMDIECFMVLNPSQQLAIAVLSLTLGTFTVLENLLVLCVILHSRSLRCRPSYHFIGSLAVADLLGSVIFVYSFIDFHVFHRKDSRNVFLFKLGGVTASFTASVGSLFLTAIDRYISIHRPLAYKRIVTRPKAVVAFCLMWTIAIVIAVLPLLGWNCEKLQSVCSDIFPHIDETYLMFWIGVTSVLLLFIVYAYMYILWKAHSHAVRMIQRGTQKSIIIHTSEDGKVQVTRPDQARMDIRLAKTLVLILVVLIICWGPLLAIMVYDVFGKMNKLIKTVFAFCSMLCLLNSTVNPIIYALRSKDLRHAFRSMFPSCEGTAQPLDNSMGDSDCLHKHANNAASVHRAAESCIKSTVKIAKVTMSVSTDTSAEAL
Chain of Cannabinoid receptor 2 (P34972 whole entry): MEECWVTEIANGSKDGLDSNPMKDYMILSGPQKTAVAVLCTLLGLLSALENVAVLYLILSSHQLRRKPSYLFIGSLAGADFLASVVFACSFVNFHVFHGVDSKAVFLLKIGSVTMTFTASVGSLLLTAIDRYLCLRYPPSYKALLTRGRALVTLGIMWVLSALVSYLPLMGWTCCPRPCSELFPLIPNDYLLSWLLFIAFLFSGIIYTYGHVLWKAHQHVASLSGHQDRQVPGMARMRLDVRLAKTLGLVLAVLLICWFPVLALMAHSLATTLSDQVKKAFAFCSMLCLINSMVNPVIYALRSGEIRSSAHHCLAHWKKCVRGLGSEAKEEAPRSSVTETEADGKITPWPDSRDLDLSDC

SMILES | Activity [1] [%] | EC50 [2] [nM] | EC50 [3] [nM]
CCCCCCC(C)(C)c1ccc([C@@H]2C[C@H](O)CC[C@H]2CCCO)c(O)c1 | 100 |  | 
CCCN(C)C(=O)N1CCc2c(nc(C(C)(C)C)n2CC2CC2)C1 |  | 380 | 
CCCCCN1CCc2c(nc(CC(C)(C)C)n2CC2CC2)C1 |  | 3000 | 
CC(C)(C)c1nc2c(n1CC1CC1)CCN(S(=O)(=O)c1ccccc1)C2 | 10 | 7.9 | 
CC(C)(C)Cc1nc2c(n1CC1CC1)CCN(S(=O)(=O)Cc1ccccc1)C2 | 15 | 13.4 | 
Cc1nocc1S(=O)(=O)N1CCc2c(nc(CC(C)(C)C)n2CC2CC2)C1 | 9 | 18.5 | 
COCCS(=O)(=O)N1CCc2c(nc(CC(C)(C)C)n2CC2CC2)C1 | 37 | 21.5 | 14000
CN(Cc1ccccc1)C(=O)N1CCc2c(nc(C(C)(C)C)n2CC2CC2)C1 |  | 637 | 
CC(C)(C)Cc1nc2c(n1CC1CC1)CCN(S(=O)(=O)c1cccnc1)C2 | 4 | 24.5 | 
CC(C)(C)c1nc2c(n1CC1CC1)CCN(S(=O)(=O)Cc1ccccc1)C2 | 13 | 21.8 | 
COc1ncc(Br)cc1CN1CCc2c(nc(C(C)(C)C)n2CC2CC2)C1 |  | 295 | 
CN(Cc1ccccc1)C(=O)N1CCc2c(nc(CC(C)(C)C)n2CC2CC2)C1 |  | 523 | 
CCCOC(=O)N1CCc2c(nc(CC(C)(C)C)n2CC2CC2)C1 |  | 560 | 
Cc1nocc1S(=O)(=O)N1CCc2c(nc(C(C)(C)C)n2CC2CC2)C1 | 38 | 55.4 | 18000
CCCCC(=O)N1CCc2c(nc(CC(C)(C)C)n2CC2CC2)C1 |  | 1020 | 
CC(C)(C)Cc1nc2c(n1CC1CC1)CCN(S(=O)(=O)c1ccccc1)C2 | 9 | 9.1 | 
Cc1noc(C)c1S(=O)(=O)N1CCc2c(nc(CC(C)(C)C)n2CC2CC2)C1 | 24 | 7 | 
CC(C)(C)Cc1nc2c(n1CC1CC1)CCN(S(C)(=O)=O)C2 | 9 | 439 | 
COCCS(=O)(=O)N1CCc2c(nc(C(C)(C)C)n2CC2CC2)C1 | 25 | 26.7 | 
CC(C)(C)c1nc2c(n1CC1CC1)CCN(S(=O)(=O)c1cccnc1)C2 | 11 | 14.2 | 
Cc1noc(C)c1S(=O)(=O)N1CCc2c(nc(C(C)(C)C)n2CC2CC2)C1 | 66 | 5.1 | 7500
CC(C)(C)c1nc2c(n1CC1CC1)CCN(S(C)(=O)=O)C2 | 10 | 403 | 
CC(C)(C)C(=O)N1CCc2c(nc(C(C)(C)C)n2CC2CC2)C1 |  | 320 | 
CCCCCN1CCc2c(nc(C(C)(C)C)n2CC2CC2)C1 |  | 878 | 
